Assay results as given in patent US20020055174A1, “Complex for transferring an anionic substance of interest into a cell” (priority 2000, published 2002).
Ends that are not written are not given here.

Assays:
plasmid pTG11236 = test: Gel retardation assay (DNA binding)
Protocol: 3μg of the plasmid pTG11236 were incubated with increasing amounts of the respective peptide in a final volume of 30 μl with 0.9% NaCl. After 20 min of incubation at room temperature, 6 μl 5× loading buffer (glycerol and bromphenol blue in TAE buffer) were added and 10 μl of these solutions were analyzed on a 1% agarose gel in the presence of ethidium bromide.
The ability of ppTG1 peptide to complex DNA was analyzed by gel retardation assays. […] After 20 minutes incubation at room temperature, loading buffer was added and 10 μl of the resulting solution were analyzed on a 1% agarose gel.
ppTG1 derivatives as they are indicated in Materials and Methods, were tested for their capacity to bind plasmid DNA by gel retardation assays.

293-EBNA cells = test: Transfection in vitro, luciferase plasmid pTG11056; format: cell-based
Protocol: Cells were plated on 24 well plates at a density of 4×10^4 (293-EBNA ) or 7×10^4 (HeLa, Renca) cells/well in DMEM supplemented with 10% FCS. The next day, the medium was replaced by 200 μl serum-free DMEM and plasmid (pTG11056 or pTG11236)/peptide complexes or plasmid/peptide/lipid complexes were prepared in 30 μl 0.9% NaCl or 5% glucose. After 20 min at room temperature these complexes were added to the cells which were then incubated for 2-3 h at 37° C. and 5% CO2 before 1 ml serum-containing DMEM was added. Approximately 20-hours later, cells were lysed by addition of 100 μl 1× Promega lysis buffer, 20 μl of the lysates were analysed for luciferase activity. Proteins were quantified with the bicinchonic acid (BCA) colorimetric method (Smith, Anal. Biochem. 150 (1985), 76-85).
4×10^4 293-EBNA cells, plated on 24 well plates the day before, were transfected with 0.5 μg, 0.1 μg, 0.05 μg and 0.01 μg of the plasmid pTG11056. The plasmid was either mixed with completely or uncompletely DNA-complexing amounts of ppTG1 in 30 μl 5% glucose and after 20 min at room temperature the mixture was added to the cells which were incubated in 200 μl serum-free medium. Further, pTG11056 was formulated with the established transfection reagents Lipofectin and PEI. […] After twenty hours, cells were washed and luciferase activity was determined in ⅕ of the lysed cells.

B6SJL mice = tested on: B6SJL mice
Protocol: Indicated amounts of the luciferase expression plasmid pTG11236 were mixed with ppTG1 and /or pcTG90/DOPE. The resulting formulations were injected intramuscularly(30 μl), intravenously(250 μl) into mice or intratumorally (Renca tumors, 100 μgl). Muscles, tumors or organs were recovered at the indicated points of time, macerated and tested for luciferase activity with the luciferase assay kit from Promega.
60 μg or 30 μg of the plasmid pTG11236 were mixed with peptide ppTG1 and/or with a pcTG90/DOPE 1:2 mixture in 250 μl 5% glucose. After 20 min incubation at room temperature, the complexes were intravenously injected into B6SJL mice. Mice were sacrificed at day 1. The lungs were recovered, total protein was extracted and luciferase activity was analysed.
The potential of gene transfer with mono-component peptide vectors was investigated in vivo. Fifty or sixty μg of the luciferase expression plasmid pTG11236 were complexed with pcTG90/DOPE (1:2) [+/−] 10 in 250 μl 5% glucose (Meyer et al. 2000). The resulting lipoplex vector served as reference for gene transfer studies with pTG11236 complexed with ppTG1, ppTG20 and ppTG32 in 250 μl 5% glucose. Five mice per group were intravenously injected, the animals were sacrificed at day 1 after injection. Lungs were tested for luciferase activity.

[1] = Liposome leakage assay, POPC/cholesterol 3:2 liposomes; details: for liposome leakage activity, in words: POPC/chol 3:2 liposomes
Protocol: Increasing amounts of the indicated peptides were incubated with POPC/Cholesterol (3:2 mol/mol) liposomes for 30 min at RT. Emitted fluorescence was plotted against peptide concentration. […] B) Liposome leakage activity with complexes of ppTG1 and the plasmid pTG11236 at pH7.
1-Palmitoyl-2-Oleoyl-phosphatidylcholine (POPC) liposomes were prepared by the repeated freeze-thaw method followed by extrusion (Olson et al., 1979, Biochim. Biophys. Acta 557, 19-23). Ten μ-moles of POPC in chloroform were placed in a glass tube and solvent was evaporated under reduced pressure using a Labconco Rapidvap vortex evaporator (Uniequip, Germany). The resulting lipid film was hydrated with 0.5 ml of an aqueous solution of calcein (lOOmM calcein, 3.75 eq. NaOH, 50mM NaCl). The lipid suspension was sonicated until the solution became clear using a sonic water bath (Bransonic 221, Branson Ultrasonics Corp., USA). Five cycles of freeze-thaw were performed before liposomes were extruded by 4 passages through 200 nm pore diameter polycarbonate membranes (Nuclepore, Costar, Mass., USA). Free calcein was removed from calcein encapsulated into liposomes by gel exclusion chromatography using a Sephadex G-50 column (3 cm×14 cm) and a 200 mM NaCl, 25 mM HEPES, pH 7.3 solution as the elution buffer. The final lipid concentration was determined by a phosphorus assay (Bartlett, 1959, J. Biol. Chem. 234, 466-469). Liposomes' diameter was determined by dynamic laser light scattering using a Coulter N4 Plus submicron particle sizer (Coultronics France S. A, France). Measurements were performed within a 3 nm-10000 nm size window with a fixed 90° scattered light angle.
The liposome leakage assay was carried out as described in Planck et al. (1994, J. Biol. Chem. 269, 12918-12924). The liposome stock solution was diluted to a lipid concentration of 45 μM in 1.8× assay buffer (360 mM NaCl, 36 mM sodium citrate, pH 5 and pH 7). A 1:5 serial dilution of the tested peptide was carried out in a 96-well microtiter plate by transferring 20 μl of the peptide solution from one well to the next well and diluting with 80 μl H2O. 100 μl of the liposome solution was added in each well (final lipid concentration: 25 μM) and, after 30 min at room temperature, was assayed for fluorescence at 535 nm (excitation: 485 nm) on a microtiter plate fluorescence spectrometer (WALLAC, 1420 multilabel counter Victor). These conditions are appropriate to analyze fluorescein and as close as possible to the appropriate excitation/ emission profile of calcein (495 nm /515 nm). The value for 100% leakage was obtained by addition of 1 μl of a 10% Triton X-100 solution. Leakage activity was plotted against peptide concentration.
Liposome leakage activities were analyzed on liposomes consisting of POPC and cholesterol at a molar ratio of 3:2 (mol/mol).
Complexes of ppTG1 with plasmid DNA pTG11236 were tested for liposome leakage activity on POPC/chol 3:2 liposomes.
The series of ppTG1 derivatives as they are listed in Materials and Methods was tested for liposome leakage activity on POPC/chol 3:2 liposomes at pH7.

[2] = 60 μg pTG11236 with 150 μg ppTG1

## GLFKALLKLLKSLWKLLLKA
Plasmid pTG11236; 3 μg pTG11236, 1 μg = 0.35 nmol
  amount of peptide at which 50% of the DNA is complexed: 1 µg
Plasmid pTG11236; 3 μg plasmid DNA (0.8 pmol), 4 μg peptide = 1.4 nmol
  amount of peptide giving retardation of plasmid: 4 µg
293-EBNA cells; 0.05 μg pTG11056 mixed with 0.065 μg ppTG1, charge ratio around 1
  transfection efficiency: still showed high transfection efficiency
293-EBNA cells; 0.5 μg pTG11056 complexed with 0.65 μg ppTG1, charge ratio around 1
  luciferase activities: higher than those observed with complexes formed with Lipofectin or PEI
B6SJL mice; [2]
  reporter gene expression after re-administration at day 3: still refractory
  reporter gene expression after re-administration at day 14: re-appearance of reporter gene expression
B6SJL mice; complexes of pTG11236 and ppTG1, i.v., day 1
  mice with gene expression in the lung: 5 out of 5
B6SJL mice; ppTG1/plasmid complexes, data not shown
  gene expression 3 days after injection: dropped 3 days after injection to background levels
[1]; pH5
  liposome leakage activity, in words: could efficiently liberate calcein
[1]; pH7
  liposome leakage activity, in words: could efficiently liberate calcein
[1]; complexed with pTG11236, P/N 5 or 10, pH7
  liposome leakage of peptide/plasmid complexes: comparable to free ppTG1
[1]; complexed with pTG11236, P/N of 1 or 0.8, pH7
  liposome leakage of peptide/plasmid complexes: slightly reduced
[1]; peptide alone or complexed with plasmid DNA, summary
  destabilization of POPC/Chol liposomes: destabilizes efficiently
